Data taken from US8188094B2, “Inhibitors of glutaminyl cyclase” (Probiodrug AG, priority 2007, dated 2012).

Target: glutaminyl cyclase (QC) (Homo sapiens, UniProt Q16769)
Assay: QC inhibitor assay (fluorometric / spectrophotometric QC activity assays)
Format: biochemical
Settings: QC inhibition, 30° C.; for Ki: progress curves fitted to the general equation for competitive inhibition
Method: All measurements were performed with a BioAssay Reader HTS-7000Plus for microplates (Perkin Elmer) at 30° C. QC activity was evaluated fluorometrically using H-Gln-βNA. The samples consisted of 0.2 mM fluorogenic substrate, 0.25 U pyroglutamyl aminopeptidase (Unizyme, Hørsholm, Denmark) in 0.2 M Tris/HCl, pH 8.0 containing 20 mM EDTA and an appropriately diluted aliquot of QC in a final volume of 250 μl. Excitation/emission wavelengths were 320/410 nm. The assay reactions were initiated by addition of glutaminyl cyclase. QC activity was determined from a standard curve of β-naphthylamine under assay conditions. One unit is defined as the amount of QC catalyzing the formation of 1 μmol pGlu-βNA from H-Gln-βNA per minute under the described conditions.
In a second fluorometric assay, QC was activity determined using H-Gln-AMC as substrate. Reactions were carried out at 30° C. utilizing the NOVOStar reader for microplates (BMG labtechnologies). The samples consisted of varying concentrations of the fluorogenic substrate, 0.1 U pyroglutamyl aminopeptidase (Qiagen) in 0.05 M Tris/HCl, pH 8.0 containing 5 mM EDTA and an appropriately diluted aliquot of QC in a final volume of 250 μl. Excitation/emission wavelengths were 380/460 nm. The assay reactions were initiated by addition of glutaminyl cyclase. QC activity was determined from a standard curve of 7-amino-4-methylcoumarin under assay conditions. The kinetic data were evaluated using GraFit software.
This novel assay was used to determine the kinetic parameters for most of the QC substrates. QC activity was analyzed spectrophotometrically using a continuous method, that was derived by adapting a previous discontinuous assay (Bateman, R. C. J. 1989 J Neurosci Methods 30, 23-28) utilizing glutamate dehydrogenase as auxiliary enzyme. Samples consisted of the respective QC substrate, 0.3 mM NADH, 14 mM α-Ketoglutaric acid and 30 U/ml glutamate dehydrogenase in a final volume of 250 μl. Reactions were started by addition of QC and persued by monitoring of the decrease in absorbance at 340 nm for 8-15 min.
The initial velocities were evaluated and the enzymatic activity was determined from a standard curve of ammonia under assay conditions. All samples were measured at 30° C., using either the SPECTRAFluor Plus or the Sunrise (both from TECAN) reader for microplates. Kinetic data was evaluated using GraFit software.
For inhibitor testing, the sample composition was the same as described above, except of the putative inhibitory compound added. For a rapid test of QC-inhibition, samples contained 4 mM of the respective inhibitor and a substrate concentration at 1 KM. For detailed investigations of the inhibition and determination of Ki-values, influence of the inhibitor on the auxiliary enzymes was investigated first. In every case, there was no influence on either enzyme detected, thus enabling the reliable determination of the QC inhibition. The inhibitory constant was evaluated by fitting the set of progress curves to the general equation for competitive inhibition using GraFit software.

glutaminyl cyclase (QC), sequence (Q16769 29-361): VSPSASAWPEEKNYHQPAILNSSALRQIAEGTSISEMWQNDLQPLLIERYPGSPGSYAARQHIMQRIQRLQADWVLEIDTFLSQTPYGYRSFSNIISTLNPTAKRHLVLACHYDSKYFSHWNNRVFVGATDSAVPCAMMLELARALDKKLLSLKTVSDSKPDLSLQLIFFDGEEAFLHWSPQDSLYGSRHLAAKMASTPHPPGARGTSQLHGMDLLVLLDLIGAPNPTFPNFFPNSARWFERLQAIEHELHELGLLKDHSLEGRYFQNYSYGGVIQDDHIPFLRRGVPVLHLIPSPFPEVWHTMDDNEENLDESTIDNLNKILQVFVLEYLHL

Structure (SMILES) | IC50 | Ki
Cc1cc(NCCCn2ccnc2)nc(-c2ccccc2)n1 [Example 1, N-(3-(1H-imidazol-1-yl)propyl)-6-methyl-2-phenylpyrimidin-4-amine] | 47.8 µM | 18 µM
c1ccc(-c2cc(NCCCn3ccnc3)nc(-c3ccccc3)n2)cc1 [Example 2, N-(3-(1H-imidazol-1-yl)propyl)-2,6-diphenylpyrimidin-4-amin] | 49.8 µM | 3.9 µM
Cc1nc(NCCCn2ccnc2)cc(-c2ccccc2)n1 [Example 3, N-(3-(1H-imidazol-1-yl)propyl)-2-methyl-6-phenylpyrimidin-4-amine] | 28.1 µM | 4.6 µM
Cc1cc(NCCCn2ccnc2)nc(C)n1 [Example 4, N-(3-(1H-imidazol-1-yl)propyl)-2,6-dimethylpyrimidin-4-amine] | 30.3 µM | 9.31 µM
Cc1ccc(-c2cc(NCCCn3ccnc3)nc(C)n2)cc1 [Example 5, N-(3-(1H-imidazol-1-yl)propyl)-2-methyl-6-p-tolylpyrimidin-4-amine] | 13.3 µM | 3.52 µM
Cc1nc(NCCCn2ccnc2)cc(-c2cc(C(F)(F)F)cc(C(F)(F)F)c2)n1 [Example 6, N-(3-(1H-imidazol-1-yl)propyl)-6-(3,5-bis(trifluoromethyl)phenyl)-2-methyl-pyrimidin-4-amine] | 14.7 µM | 4.69 µM
FC(F)(F)c1cc(-c2cc(NCCCn3ccnc3)nc(-c3ccccc3)n2)cc(C(F)(F)F)c1 [Example 7, N-(3-(1H-imidazol-1-yl)propyl)-6-(3,5-bis(trifluoromethyl)phenyl)-2-phenyl-pyrimidin-4-amine] | 91.1 µM | –
COc1cc(-c2cc(NCCCn3ccnc3)nc(-c3ccccc3)n2)cc(OC)c1OC [Example 8, N-(3-(1H-imidazol-1-yl)propyl)-6-(3,4,5-trimethoxyphenyl)-2-phenylpyrimidin-4-amine] | 7.08 µM | 1.16 µM
Cc1ccc(-c2cc(NCCCn3ccnc3)nc(-c3ccccc3)n2)cc1 [Example 9, N-(3-(1H-imidazol-1-yl)propyl)-2-phenyl-6-p-tolylpyrimidin-4-amine] | 14.4 µM | –
O=[N+]([O-])c1ccc(-c2cc(NCCCn3ccnc3)nc(-c3ccccc3)n2)cc1 [Example 10, N-(3-(1H-imidazol-1-yl)propyl)-6-(4-nitrophenyl)-2-phenylpyrimidin-4-amine] | 12.4 µM | –
COc1ccccc1-c1cc(NCCCn2ccnc2)nc(-c2ccccc2)n1 [Example 11, N-(3-(1H-imidazol-1-yl)propyl)-6-(2-methoxyphenyl)-2-phenylpyrimidin-4-amine] | 22.6 µM | –
COc1cccc(-c2cc(NCCCn3ccnc3)nc(-c3ccccc3)n2)c1 [Example 12, N-(3-(1H-imidazol-1-yl)propyl)-6-(3-methoxyphenyl)-2-phenylpyrimidin-4-amine] | 9.37 µM | 3.75 µM
c1ccc(-c2nc(NCCCn3ccnc3)cc(-c3ccoc3)n2)cc1 [Example 13, N-(3-(1H-imidazol-1-yl)propyl)-6-(furan-3-yl)-2-phenylpyrimidin-4-amine] | 40.3 µM | 14.9 µM
c1ccc(-c2nc(NCCCn3ccnc3)cc(C34CC5CC(CC(C5)C3)C4)n2)cc1 [Example 14, N-(3-(1H-imidazol-1-yl)propyl)-6-(adamant-1-yl)-2-phenylpyrimidin-4-amine] | 116 µM | –
c1cc(-c2nc(NCCCn3ccnc3)cc(-c3ccoc3)n2)ccn1 [Example 17, N-(3-(1H-imidazol-1-yl)propyl)-6-(furan-3-yl)-2-(pyridin-4-yl)pyrimidin-4-amine] | 27.3 µM | 3.7 µM
FC(F)(F)c1cc(NCCCn2ccnc2)nc(-c2ccncc2)n1 [Example 18, N-(3-(1H-imidazol-1-yl)propyl)-6-(trifluoromethyl)-2-(pyridin-4-yl)pyrimidin-4-amine] | 36.8 µM | 4.19 µM
COc1cccc(-c2cc(NCCCn3ccnc3)nc(C)n2)c1 [Example 19, N-(3-(1H-imidazol-1-yl)propyl)-6-(3-methoxyphenyl)-2-methylpyrimidin-4-amine] | 20.9 µM | 2.7 µM
COc1cc(-c2cc(NCCCn3ccnc3)nc(C)n2)cc(OC)c1OC [Example 20, N-(3-(1H-imidazol-1-yl)propyl)-6-(3,4,5-trimethoxy-phenyl)-2-methyl-pyrimidin-4-amine] | 6.43 µM | 0.72 µM
COc1ccc(-c2cc(NCCCn3ccnc3)nc(C)n2)cc1 [Example 21, N-(3-(1H-imidazol-1-yl)propyl)-6-(4-methoxyphenyl)-2-methylpyrimidin-4-amine] | 18.5 µM | 2.26 µM
COc1ccccc1-c1cc(NCCCn2ccnc2)nc(C)n1 [Example 22, N-(3-(1H-imidazol-1-yl)propyl)-6-(2-methoxyphenyl)-2-methylpyrimidin-4-amine] | 19.3 µM | 2.16 µM
O=[N+]([O-])c1ccc(-c2cc(NCCCn3ccnc3)nc(-c3ccncc3)n2)cc1 [Example 24, N-(3-(1H-imidazol-1-yl)propyl)-6-(4-nitrophenyl)-2-(pyridin-4-yl)pyrimidin-4-amine] | 16.9 µM | –
Cc1ccc(-c2cc(NCCCn3ccnc3)nc(-c3ccncc3)n2)cc1 [Example 25, N-(3-(1H-imidazol-1-yl)propyl)-2-(pyridin-4-yl)-6-p-tolylpyrimidin-4-amine] | 30.6 µM | –
COc1ccccc1-c1cc(NCCCn2ccnc2)nc(-c2ccncc2)n1 [Example 26, N-(3-(1H-imidazol-1-yl)propyl)-6-(2-methoxyphenyl)-2-(pyridin-4-yl)pyrimidin-4-amine] | 8.18 µM | 0.83 µM
COc1cccc(-c2cc(NCCCn3ccnc3)nc(-c3ccncc3)n2)c1 [Example 27, N-(3-(1H-imidazol-1-yl)propyl)-6-(3-methoxyphenyl)-2-(pyridin-4-yl)pyrimidin-4-amine] | 19 µM | –
COc1ccccc1-c1cc(NCCCn2cncc2C)nc(-c2ccncc2)n1 [Example 28, 6-(2-Methoxyphenyl)-N-(3-(5-methyl-1H-imidazol-1-yl)propyl)-2-(pyridin-4-yl)pyrimidin-4-amine] | 1.09 µM | 0.281 µM
c1ccc(-c2nc(Nc3ccc4nc[nH]c4c3)cc(-c3ccc4ncccc4c3)n2)cc1 [Example 30, N-(2-phenyl-6-(quinolin-6-yl)pyrimidin-4-yl)-3H-benzo[d]imidazol-5-amine] | 100 µM | –
Cc1nc(NCCCn2ccnc2)cc(-c2ccc3ncccc3c2)n1 [Example 31, N-(3-(1H-imidazol-1-yl)propyl)-2-methyl-6-(quinolin-6-yl)pyrimidin-4-amine] | 31.4 µM | 3.56 µM
c1ccc(C2CC2c2cc(NCCCn3ccnc3)nc(-c3ccncc3)n2)cc1 (stereo not drawn) [Example 33, N-(3-(1H-imidazol-1-yl)propyl)-6-(2-phenylcyclopropyl)-2-(pyridin-4-yl)-pyrimidin-4-amine] | 26.5 µM | 3.06 µM
Cc1nc(NCCCn2ccnc2)cc(C2Cc3ccccc3C2)n1 [Example 34, N-(3-(1H-imidazol-1-yl)propyl)-6-(2,3-dihydro-1H-inden-2-yl)-2-methyl-pyrimidin-4-amine] | 48.3 µM | 6.82 µM
c1ccc2c(c1)CC(c1cc(NCCCn3ccnc3)nc(-c3ccncc3)n1)C2 [Example 36, N-(3-(1H-imidazol-1-yl)propyl)-6-(2,3-dihydro-1H-inden-2-yl)-2-(pyridin-4-yl)-pyrimidin-4-amine] | 26.8 µM | 3.52 µM
